Positions count from the first letter of the chain named. Values joined by “and” are separate entries in the source; they are usually repeats but may differ in a detail not shown here. Identical values can stand only once. Like-named read-outs stand apart in the source and are kept apart here.
Experiments:
Format in all cases: cell-based
hTA1 C88/178S = target: T1, hTA1 C88/178S (Homo sapiens, UniProt Q96RJ0, C178S/C88S); experiment: GloSensor cAMP accumulation assay, C88S/C178S double mutant
T1 construct: expressed in transfected cells; host or cells: HEK293T
T1 sequence (Q96RJ0 1-339 C88S/C178S): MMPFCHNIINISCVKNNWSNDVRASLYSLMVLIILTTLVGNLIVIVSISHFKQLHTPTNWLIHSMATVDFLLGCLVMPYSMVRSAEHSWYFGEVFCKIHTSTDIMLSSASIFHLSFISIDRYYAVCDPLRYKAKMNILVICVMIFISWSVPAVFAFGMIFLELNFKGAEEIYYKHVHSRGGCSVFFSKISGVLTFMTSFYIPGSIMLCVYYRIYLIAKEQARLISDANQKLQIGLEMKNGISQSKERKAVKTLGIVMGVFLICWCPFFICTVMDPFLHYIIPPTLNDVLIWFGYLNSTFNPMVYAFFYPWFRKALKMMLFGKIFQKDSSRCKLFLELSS

hTA1 I290N = target: T2, hTA1 I290N (Homo sapiens, UniProt Q96RJ0, I290N); experiment: GloSensor cAMP accumulation assay, I290N mutant;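 further: cells transiently co-expressing hTA1 and the GloSensor cAMP biosensor, luminescence read 30 min after compound addition at room temperature, efficacy scaled to the maximal β-PEA response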
T2 construct: expressed in transfected cells; host or cells: HEK293T
T2 sequence (Q96RJ0 1-339 I290N): T1 sequence (Q96RJ0 1-339 C88S/C178S) with S88C, S178C, I290N

hTA1 F195T = target: T3, hTA1 F195T (Homo sapiens, UniProt Q96RJ0, F195T); experiment: GloSensor cAMP accumulation assay, F195T mutant; settings: F195T;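 further: cells transiently co-expressing HA-FLAG-tagged hTA1 and the GloSensor cAMP biosensor, luminescence read 30 min after agonist addition at room temperature, concentration-response fitted by nonlinear regression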
T3 construct: expressed in transfected cells; host or cells: HEK293T
T3 sequence (Q96RJ0 1-339 F195T): T1 sequence (Q96RJ0 1-339 C88S/C178S) with S88C, S178C, F195T

hTA1 T271A = target: T4, hTA1 T271A (Homo sapiens, UniProt Q96RJ0, T271A); experiment: GloSensor cAMP accumulation assay, T271A mutant
T4 construct: expressed in transfected cells; host or cells: HEK293T
T4 sequence (Q96RJ0 1-339 T271A): T1 sequence (Q96RJ0 1-339 C88S/C178S) with S88C, S178C, T271A

For `CN1CC2c3ccccc3Oc3ccc(Cl)cc3C2C1` (stereo not drawn) [asenapine], the EC50 (hTA1 C88/178S; C88/178S, n=2, read-out: EC50) was 205 nM, the Emax (hTA1 C88/178S; read-out: Span ± SEM (Emax normalized to β-PEA)) was 86.3 ± 8.4% and the “reduction in potency vs wild type” value (hTA1 I290N; I290N) was 4 fold. The “Emax values of Asenapine” value (hTA1 I290N; I290N, Mean of one experiment) was 77.7708, the Emax (hTA1 I290N; I290N, Mean of one experiment, read-out: Emax values of Asenapine) was 90.3% and the EC50 (hTA1 I290N; I290N, Mean of one experiment, read-out: pEC50 values of Asenapine (converted)) was 1390 nM and 721 nM. For the same molecule, the EC50 (hTA1 I290N; I290N, n=2, read-out: EC50) was 1000 nM, the Emax (hTA1 I290N; I290N, n=2, read-out: Span ± SEM (Emax normalized to β-PEA)) was 84 ± 6.25% and the EC50 (hTA1 I290N; I290N, n=2, read-out: pEC50 ± SEM (converted)) was 1000 nM. The Emax (hTA1 I290N; I290N, relative to β-PEA, read-out: Emax) was 84%, the “ΔEmax values (each mutant value - WT average), I290N, Mean” value (hTA1 I290N; hTA1 I290N mutant vs WT average, Figure 6B, each line is one experiment (3 replicates)) was 1.57 and -10.9365 and the “increase in potency vs wild type” value (hTA1 F195T) was 3 fold. The “ΔpEC50 values (each mutant value - WT average), Mean” value (hTA1 F195T; Asenapine) was -0.004135 and 0.1049, the “Emax values, Mean” value (hTA1 F195T; Asenapine, per experiment, 3 replicates) was 90.8432 and 72.9114 and the EC50 (hTA1 F195T; Asenapine, per experiment, 3 replicates, read-out: pEC50 values Mean (converted)) was 87.4 nM and 68 nM. The EC50 (hTA1 F195T; n=2, read-out: EC50) was 77.1 nM, the Emax (hTA1 F195T; n=2, read-out: Span ± SEM (Emax normalized to β-PEA)) was 81.9 ± 8.97% and the “reduction in potency vs wild type” value (hTA1 T271A; T271A) was “roughly 4 fold”. For the same molecule, the “Emax values of Asenapine” value (hTA1 T271A; T271A, Mean of one experiment) was 88.882, the Emax (hTA1 T271A; T271A, Mean of one experiment, read-out: Emax values of Asenapine) was 101% and the EC50 (hTA1 T271A; T271A, Mean of one experiment, read-out: pEC50 values of Asenapine (converted)) was 1300 nM and 1020 nM. For the same molecule, the EC50 (hTA1 T271A; T271A, n=2, read-out: EC50) was 1150 nM, the Emax (hTA1 T271A; T271A, n=2, read-out: Span ± SEM (Emax normalized to β-PEA)) was 94.8 ± 5.91% and the “ΔEmax values (each mutant value - WT average), T271A, Mean” value (hTA1 T271A; hTA1 T271A mutant vs WT average, Figure 6B, each line is one experiment (3 replicates)) was 11.9925 and 0.1748.

Reference: publication PMC10762035, “Molecular basis of human trace amine-associated receptor 1 activation” (Nature Communications, 2024)
